Laboratory results published in patent US20260008768A1, “UREA DERIVATIVES FOR INHIBITING NLRP3 AND USES THEREOF” (VENTUS THERAPEUTICS U.S., INC., priority 2023, published 2026).

Biological target: human NLRP3 (Homo sapiens, UniProt Q96P20)
Test: Human Whole Blood (hWB) NLRP3 Assay (LPS/ATP, IL-1β)
Type: cell-based
Design: host or cells: human whole blood from healthy volunteers (A3)
Protocol: Human whole blood is drawn from healthy volunteers after obtaining written informed consent. Heparin lithium coated tubes are used to collect blood from volunteers. Blood samples are distributed on 96 well plates using 90 μl per well.
Priming procedure: Priming is performed by adding 5 μl of LPS (O26:B6; Sigma L-2654) at a final concentration of 1 μg/ml for 4.5 hours in a humidified incubator with 37° C., 5% CO2. Thirty minutes prior to NLRP3 activation, 5 μl of a 20× compound solution or vehicle (2% dimethylsulfoxide (DMSO)) is added to each well and plates were incubated on a shaker (450 rpm) in a humidified incubator with 37° C., 5% CO2.
Alternative priming procedure: Thirty minutes prior to LPS priming, 5 μl of a 20× compound solution or vehicle (2% dimethylsulfoxide (DMSO)) is added to each well and plates were incubated on a shaker (450 rpm) in a humidified incubator with 37° C., 5% CO2. Priming is performed by adding 5 μl of LPS (O26:B6; Sigma L-2654) at a final concentration of 1 μg/ml for 5 hours in a humidified incubator with 37° C., 5% CO2.
Activation is then performed by adding 3.3 μl of a 31×ATP solution per well. At the end of the 30 minutes stimulation, the plates are centrifuged (800 g, 10 min, room temperature) and the plasma from each well is frozen at −80° C. IL-1β levels in the supernatant were analyzed using a mesoscale discovery assay (MSD K151TUK) according to the manufacturers' instructions.
There is no detectable difference in assay results using the priming procedure versus the alternative priming procedure.
hWB NLRP3 IC50 assay results, as a measurement of whole blood potency, are provided in Table B. “A” activity=<1 uM; “B” activity=1-2 uM; “C” activity=>2-3 uM; “D” activity=>3 uM.

Sequence of human NLRP3 (Q96P20 whole entry): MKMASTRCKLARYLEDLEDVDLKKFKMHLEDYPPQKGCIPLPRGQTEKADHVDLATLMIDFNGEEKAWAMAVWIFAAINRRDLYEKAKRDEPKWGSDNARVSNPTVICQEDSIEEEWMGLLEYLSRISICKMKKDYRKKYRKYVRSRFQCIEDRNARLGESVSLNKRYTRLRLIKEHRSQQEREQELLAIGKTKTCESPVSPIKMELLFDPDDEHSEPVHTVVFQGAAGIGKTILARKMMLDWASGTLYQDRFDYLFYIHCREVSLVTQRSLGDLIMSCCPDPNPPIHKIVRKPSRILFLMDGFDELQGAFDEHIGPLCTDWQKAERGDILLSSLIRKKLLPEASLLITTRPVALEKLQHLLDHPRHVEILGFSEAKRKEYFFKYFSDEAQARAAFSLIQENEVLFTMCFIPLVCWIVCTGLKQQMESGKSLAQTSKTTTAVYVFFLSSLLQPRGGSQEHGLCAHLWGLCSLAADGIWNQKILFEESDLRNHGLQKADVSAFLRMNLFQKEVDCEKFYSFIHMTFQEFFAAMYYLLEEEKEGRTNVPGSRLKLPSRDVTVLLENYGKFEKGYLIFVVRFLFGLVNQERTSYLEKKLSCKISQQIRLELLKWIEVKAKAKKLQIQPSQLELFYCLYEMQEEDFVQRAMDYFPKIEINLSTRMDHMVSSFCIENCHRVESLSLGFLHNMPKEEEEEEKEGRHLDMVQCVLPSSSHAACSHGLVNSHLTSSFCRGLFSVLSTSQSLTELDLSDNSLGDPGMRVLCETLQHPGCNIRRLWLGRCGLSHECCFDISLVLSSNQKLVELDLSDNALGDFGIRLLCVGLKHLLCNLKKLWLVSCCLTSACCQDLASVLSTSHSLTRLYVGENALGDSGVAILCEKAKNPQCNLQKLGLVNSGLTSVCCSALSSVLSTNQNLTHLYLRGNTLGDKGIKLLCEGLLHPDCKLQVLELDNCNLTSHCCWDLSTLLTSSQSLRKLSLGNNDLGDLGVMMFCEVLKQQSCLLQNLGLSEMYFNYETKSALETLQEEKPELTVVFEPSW

With `C[C@@H]1CCN(c2nnn[nH]2)C[C@H](NC(=O)N(C)c2ccc(Cl)cc2)C1` (single isomer, unassigned) [4A*] as the compound, how does the IC50 (Table B, activity class) read?
Its IC50 is < 1000 nM.

What about the IC50 (Table C) of the same compound?
Its IC50 is 150 nM.

For `C[C@@H]1CCN(c2nnn[nH]2)C[C@H](NC(=O)N(C)c2ccc(OC(F)(F)F)cc2)C1` (single isomer, unassigned) [10A*], which IC50 (Table B, activity class) is on record?
The IC50 was < 1000 nM.

What about the IC50 (Table C) of the same compound?
The IC50 was 300 nM.

Which results are given for `C[C@@H]1CCN(c2nnn[nH]2)C[C@H](NC(=O)N(C)c2ccc(OC(F)F)cc2)C1` (single isomer, unassigned) [11A*]?
IC50 (Table B, activity class): < 1000 nM; IC50 (Table C): 58 nM
